Reference: patent publication US20170000908A1, “A MICELLAR PARTICLE” (AGENCY FOR SCIENCE, TECHNOLOGY AND RESEARCH, priority 2013, published 2017)

Columns and labels:
[1] = Quantum yield measured against fluorescence standard solutions; format: physicochemical; details: dye in THF
Protocol: Quantum yield was measured with respect to the fluorescence standard solution, namely fluorescein (Ethanol; QY=0.79), and rhodamine B (Ethanol; QY=0.49). Fluorescein was used as a reference for Coumarin545T@SiO2, whereas rhodamine B was used for DCJTB@SiO2. The procedures involved diluting the fluorescent silica nanocapsules and the fluorescence standard solution with their respective solvent to have the same absorbance at excitation wavelength (460 nm for fluorescein; 490 nm for rhodamine B). Quantum yields for fluorescent silica nanocapsules were measured by dividing, the integrated emission area of their fluorescent spectrum against that of fluorecein or rhodamine B in Ethanol. […] In addition, the lifetime of Coumarin545T@SiO2 was determined to be 3.38 ns, while the lifetime of coumarin545T in THF was determined to be 2.86 ns. Similarly, the lifetime of DCJTB@SiO2 was determined to be 3.40 ns, while the lifetime of DCJTB in THF was determined to be 2.50 ns.

[2] = Photoluminescence lifetime by Time Correlated Single Photon Counting (TCSPC); format: physicochemical; details: dye in THF; excited at 405 nm
Protocol: The photoluminescence lifetimes of the Coumarin545T@SiO2 and DCJTB@SiO2 samples were measured using a Time Correlated Single Photon Counting (TCSPC) module (PicoQuant PicoHarp 300 of PicoQuant of Berlin, Germany). The Coumarin545T@SiO2 and DCJTB@SiO2 samples were excited by using 405 nm line of a picosecond pulsed laser diode (PicoQuant PDL 800-B). The photoluminescence was dispersed through a monochromator (Acton SpectroPro 2300i) and detected with a micro channel plate photomultiplier tube (MCP-PMT) detector (Hamamatsu R3809U-50).
FIG. 4 is a graph showing the time-resolved photoluminescence decay of Coumarin545T dissolved in THF and that when encapsulated inside the core of the nanocapsules. FIG. 5 is a graph showing the time-resolved photoluminescence decay of DCJTB dissolved in THF and that when encapsulated inside the core of the nanocapsules. […] Based on these figures, when compared to the photoluminescence behavior of the dye solutions (Coumarin545T or DCJTB) in their respective solvents, there is a significant red-shift in the emission peak for both of the silica nanocapsules, which should be ascribed to the π-π stacking of the dye molecules by encapsulation. The emission spectra of the nanocapsules are also broader than the dye solutions in their respective solvents. […]

[3] = UV-Vis and photoluminescent spectra (emission peak, fwhm); format: physicochemical; details: dye in THF
Description: The UV-Vis and photoluminescent spectra of Coumarin545T@SiO2 are shown in FIG. 2 while those of DCJTB@SiO2 are shown in FIG. 3.
FIG. 4 is a graph showing the time-resolved photoluminescence decay of Coumarin545T dissolved in THF and that when encapsulated inside the core of the nanocapsules. FIG. 5 is a graph showing the time-resolved photoluminescence decay of DCJTB dissolved in THF and that when encapsulated inside the core of the nanocapsules. […] Based on these figures, when compared to the photoluminescence behavior of the dye solutions (Coumarin545T or DCJTB) in their respective solvents, there is a significant red-shift in the emission peak for both of the silica nanocapsules, which should be ascribed to the π-π stacking of the dye molecules by encapsulation. The emission spectra of the nanocapsules are also broader than the dye solutions in their respective solvents. The silica coating could lead to improvement in the photostability of the dye molecules by limiting their contact with the outside environment, especially soluble oxygen molecules.

[4] = Ethanol; cited from earlier work

Row | Compound | Quantum Yield (QY) [1] | Fluorescence Lifetime (τ) [2] | fwhm [3] | λem [3] | Quantum yield (QY) of fluorescence standard solution [4]
1 | CC1(C)CCN2CCC(C)(C)c3c2c1cc1cc(-c2nc4ccccc4s2)c(=O)oc31 [Coumarin 545T] | 0.99 | 2.86 ns | 35 nm | 504 nm | –
2 | CC(C)(C)C1=CC(=C(C#N)C#N)C=C(/C=C/c2cc3c4c(c2)C(C)(C)CCN4CCC3(C)C)O1 [DCJTB] | 0.99 | 2.50 ns | 73 nm | 605 nm | –
3 | CCN(CC)c1ccc2c(-c3ccccc3C(=O)O)c3ccc(=[N+](CC)CC)cc-3oc2c1.[Cl-] [rhodamine B] | – | – | – | – | 0.49
